Test results published in patent US10189887B2, “Polypeptides and uses thereof for reducing CD95-mediated cell motility” (INSERM (INSTITUT NATIONAL DE LA SANTÉ ET DE LA RECHERCHE …, priority 2014, dated 2019).
Ends that are not written are not given here.

Legend:
CD95/PLCγ1 = molecular target: T1, CD95/PLCγ1 (Homo sapiens, UniProt P19174); assay: PLCγ1 recruitment to CD95 (immunoprecipitation and immunoblotting); format: cell-based; details: HEK cells co-transfected with PLCγ1 and construct
T1 construct: endogenous in cells; host or cells: CEM (human leukemic T-cell line)
T1 sequence (P19174 2-1290 limits assumed): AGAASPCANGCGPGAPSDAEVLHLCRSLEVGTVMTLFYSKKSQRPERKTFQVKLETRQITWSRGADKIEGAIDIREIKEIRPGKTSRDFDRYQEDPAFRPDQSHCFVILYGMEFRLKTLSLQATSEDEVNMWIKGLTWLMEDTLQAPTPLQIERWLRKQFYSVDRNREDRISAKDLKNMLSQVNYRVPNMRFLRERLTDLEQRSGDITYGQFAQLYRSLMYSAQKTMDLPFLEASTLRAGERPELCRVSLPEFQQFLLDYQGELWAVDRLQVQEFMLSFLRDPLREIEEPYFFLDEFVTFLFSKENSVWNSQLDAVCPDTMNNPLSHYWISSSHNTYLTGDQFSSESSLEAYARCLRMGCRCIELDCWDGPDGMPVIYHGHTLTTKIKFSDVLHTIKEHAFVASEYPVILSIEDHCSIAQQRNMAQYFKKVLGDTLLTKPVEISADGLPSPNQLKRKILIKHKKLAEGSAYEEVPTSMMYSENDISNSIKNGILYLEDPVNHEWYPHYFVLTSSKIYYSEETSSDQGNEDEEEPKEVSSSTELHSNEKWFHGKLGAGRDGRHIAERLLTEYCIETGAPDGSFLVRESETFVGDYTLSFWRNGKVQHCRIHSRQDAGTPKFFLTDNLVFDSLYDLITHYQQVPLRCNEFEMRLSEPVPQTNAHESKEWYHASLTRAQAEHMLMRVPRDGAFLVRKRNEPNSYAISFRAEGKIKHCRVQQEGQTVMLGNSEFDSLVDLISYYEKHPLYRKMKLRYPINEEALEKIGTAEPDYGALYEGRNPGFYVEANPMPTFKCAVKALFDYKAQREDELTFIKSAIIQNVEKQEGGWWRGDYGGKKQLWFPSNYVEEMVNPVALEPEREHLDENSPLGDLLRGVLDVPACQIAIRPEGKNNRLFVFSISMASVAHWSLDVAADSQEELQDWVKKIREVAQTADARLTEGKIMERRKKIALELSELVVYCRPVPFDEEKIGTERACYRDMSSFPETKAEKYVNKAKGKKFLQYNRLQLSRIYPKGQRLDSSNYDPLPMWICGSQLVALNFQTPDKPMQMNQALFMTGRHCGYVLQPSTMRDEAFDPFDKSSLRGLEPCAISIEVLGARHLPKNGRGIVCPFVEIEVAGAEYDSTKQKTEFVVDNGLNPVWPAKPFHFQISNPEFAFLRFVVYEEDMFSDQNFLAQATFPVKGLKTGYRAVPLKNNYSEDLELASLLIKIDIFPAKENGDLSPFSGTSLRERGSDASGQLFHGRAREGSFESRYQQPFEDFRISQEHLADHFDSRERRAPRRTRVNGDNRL
Experimental: T-cells (5×10^7 cells per condition) were stimulated with Ig-CD95L or cl-CD95L (100 ng/mL) for indicated times at 37° C. Cells were lysed, incubated with APO1.3 (1 ug/mL) for 15 min at 4° C. and CD95 was immunoprecipitated using A/G protein-coupled magnetic beads (Ademtech, Pessac, France) for 1 h. After extensive washing, the immune complex was resolved by SDS-PAGE and immunoblotting was performed with indicated antibodies.
Cells were lyzed for 30 minutes at 4° C. in lysis buffer (25 mM HEPES pH 7.4, 1% v/v Triton X-100, 150 mM NaCl, 2 mM EGTA supplemented with a mix of protease inhibitors (Sigma-Aldrich)). Protein concentration was determined by the bicinchoninic acid method (PIERCE, Rockford, Ill., USA) according to the manufacturer's protocol. Proteins were separated on a 12% SDS-PAGE and transferred to a nitrocellulose membrane (GE Healthcare, Buckinghamshire, England). The membrane was blocked 15 minutes with TBST (50 mM Tris, 160 mM NaCl, 0.05% v/v Tween 20, pH 7.8) containing 5% w/v dried skimmed milk (TBSTM). Primary antibody was incubated overnight at 4° C. in TBSTM. The membrane was intensively washed (TBST) and then the peroxydase-labeled anti-rabbit or anti-mouse (SouthernBiotech, Birmingham, Ala., US) was added for 45 minutes. The proteins were visualized with the enhanced chemiluminescence substrate kit (ECL, GE Healthcare).

[1] = test system: CD95-mediated Ca^2+ response; assay: Calcium response to cl-CD95L in Jurkat cells (Fura2/FuraPE3 video imaging); format: cell-based; details: Jurkat pre-incubated 1 hr, 10 μM peptide; 100 ng/ml cl-CD95L
Experimental: (§1) Cells were loaded with Fura2-AM (1 μM) at resting temperature for 30 min in Hank's Balanced Salt Solution (HBSS). After washing with HBSS, the cells were incubated for 15 min in the absence of Fura2-AM to complete de-esterification of the dye. Cells were placed in a thermostated chamber (37° C.) of an inverted epifluorescence microscope (Olympus IX70) equipped with a ×40, UApo/340-1.15 W water-immersion objective (Olympus), and fluorescence micrograph images were captured at 510 nm and at 12-bit resolution by a fast-scan camera (CoolSNAP fx Monochrome, Photometrics). To minimize UV light exposure, 4×4 binning function was used. Fura2-AM was alternately excited at 340 and 380 nm, and ratios of the resulting images (excitations at 340 and 380 nm and emission filter at 520 nm) were produced at constant intervals (5 s or 10 s according to the stimulus). […] Fluorescent images were pseudocolored using the IMD display mode in MetaFluor and assembled without further manipulation in Photoshop (Adobe). Raw data were acquired with MetaFluor and graphed in Origin (OriginLab). [Ca^2+]i was calculated using the following equation: [Ca^2+]i=Kd(R−Rmin)/(R−Rmax)×Sf2/Sf1, where Kd is the Fura2-AM dissociation constant at the two excitation wavelengths (F340/F380); Rmin is the fluorescence ratio in the presence of minimal calcium, obtained by chelating Ca^2+ with 10 mM EGTA; Rmax is the fluorescence ratio in the presence of excess calcium, obtained by treating cells with 1 μM ionomycin; Sf2 is the fluorescence of the Ca^2+-free form; and Sf1 is the fluorescence of the Ca^2+-bound form of Fura2-AM at excitation wavelengths of 380 and 340 nm, respectively. In some experiments cells were placed in a Ca^2+-free medium consisting of the HBSS described above in which CaCl2 was omitted and 100 μM EGTA was added in order to chelate residual Ca^2+ ions. This medium was added to the cells just before recording to avoid leak of the intracellular calcium stores.
T cells were loaded with Fura-PE3-AM (1 μM) at room temperature for 30 min in Hank's Balanced Salt Solution (HBSS). After washing, the cells were incubated for 15 min in the absence of Fura-PE3-AM to complete de-esterification of the dye. Cells were placed in the temperature controlled chamber (37° C.) of an inverted epifluorescence microscope (Olympus IX70) equipped with an ×40 UApo/340-1.15 W water-immersion objective (Olympus), and fluorescence micrograph images were captured at 510 nm and 12-bit resolution by a fast-scan camera (CoolSNAP fx Monochrome, Photometrics). To minimize UV light exposure, a 4×4 binning function was used. Fura-PE3 was alternately excited at 340 and 380 nm, and the ratios of the resulting images (emission filter at 520 nm) were produced at constant intervals (10 seconds). The Fura-PE3 ratio (Fratio 340/380) images were analyzed offline with Universal Imaging software, including Metafluor and Metamorph. Fratio reflects the intracellular Ca^2+ concentration changes. Each experiment was repeated 3 times, and the average of more than 20 single-cell traces was analyzed.

[2] = test system: CD95-mediated Ca^2+ response; assay: Calcium response to cl-CD95L in activated PBL; format: cell-based, human; details: activated PBL pre-incubated 1 hr, 10 μM peptide; 100 ng/ml cl-CD95L
Experimental: as §1
All cells were purchased from ATCC (Molsheim Cedex, France). T leukemic cell lines CEM, H9 and Jurkat were cultured in RPMI supplemented with 8% heat-inactivated FCS (v/v) and 2 mM L-glutamine at 37° C. in a 5% CO2 incubator. CEM-IRC cell expressing a low amount of plasma membrane CD95 was described in (Beneteau et al., 2007; Beneteau et al., 2008). […]
T cells were loaded with Fura-PE3-AM (1 μM) at room temperature for 30 min in Hank's Balanced Salt Solution (HBSS). […] Cells were placed in the temperature controlled chamber (37° C.) of an inverted epifluorescence microscope (Olympus IX70) equipped with an ×40 UApo/340-1.15 W water-immersion objective (Olympus), and fluorescence micrograph images were captured at 510 nm and 12-bit resolution by a fast-scan camera (CoolSNAP fx Monochrome, Photometrics). […]

[3] = test system: CD95-mediated Ca^2+ response; assay: Calcium response to cl-CD95L in MEF; format: cell-based; details: MEFs pre-incubated 1 hr, 10 μM peptide; 100 ng/ml cl-CD95L
Experimental: Cells were loaded with Fura2-AM (1 μM) at resting temperature for 30 min in Hank's Balanced Salt Solution (HBSS). After washing with HBSS, the cells were incubated for 15 min in the absence of Fura2-AM to complete de-esterification of the dye. Cells were placed in a thermostated chamber (37° C.) of an inverted epifluorescence microscope (Olympus IX70) equipped with a ×40, UApo/340-1.15 W water-immersion objective (Olympus), and fluorescence micrograph images were captured at 510 nm and at 12-bit resolution by a fast-scan camera (CoolSNAP fx Monochrome, Photometrics). To minimize UV light exposure, 4×4 binning function was used. Fura2-AM was alternately excited at 340 and 380 nm, and ratios of the resulting images (excitations at 340 and 380 nm and emission filter at 520 nm) were produced at constant intervals (5 s or 10 s according to the stimulus). […] Fluorescent images were pseudocolored using the IMD display mode in MetaFluor and assembled without further manipulation in Photoshop (Adobe). Raw data were acquired with MetaFluor and graphed in Origin (OriginLab). […]

Row | interaction with PLCγ1 (co-immunoprecipitation) (CD95/PLCγ1) | PLCγ1 recruitment to CD95 (CD95/PLCγ1; CD95L 100 ng/mL) | Substance | calcium response to cl-CD95L [1] | calcium response to cl-CD95L [2] | initial phase of the calcium response to cl-CD95L [3]
1 | interacted with PLCγ1 | inhibited its recruitment to CD95 | CD95^(175-210)-mCherry: construct consisting of CD95 amino acids 175 to 210 (calcium-inducing domain) fused to mCherry, expressed in HEK cells (KRKEVQKTCRKHRKENQGSHESPTLNPETVAINLSD-mCherry) |  |  | 
2 |  |  | TAT peptide control: TAT control peptide, SEQ ID NO: 5 (RKKRRQRRRGGSIELDDPRPR; TAT-CONTROL) [reference compound] | did not significantly modify the calcium response | did not significantly modify the calcium response | did not modify the initial phase
